The values below come from US9994554B2, “Barbiturate and thiobarbiturate compounds for use in cancer therapy” (NUHOPE, LLC, priority 2011, dated 2018).

SMILES strings stand for the structures. Several values for one entry are separate records, joined by “and”; a condition that tells them apart may be missing. Equal entries are not always repeated.

One data set has as its system U87-MG. Briefly: cells. Here is the method: Human neuroblastoma cell lines were cultured in Dulbecco's Modified Eagle Medium (DMEM)/F12 media. Human glioma cells were ordered from American Type Culture Collection (ATCC, Manassas, Va.), and maintained in DMEM with 4×10^−3M L-glutamine, 100 U/ml penicillin, 100 μg/ml streptomycin, and 10% fetal bovine serum (FBS). All experiments were performed at 37° C. in 5% CO2 atmosphere under cell culture conditions. Prior to γ-radiation or exposure to chemotherapeutic agents, the glioma cells were plated at a density of 156 to 8,000 cells per well in 96 well plates to account for differences in growth rates, and to obtain similar cell densities for the experimental manipulations, and cultured overnight. Then cells received different dosages of γ-radiation from a ^60Co source GammaCell 220 (Nordion International Inc, Ontario, Canada) or chemotherapeutic agents for another 2-6 days. Cell cytotoxicity assay was determined by MTS [3-(4,5-dimethylthiazol-2-yl)-5-(3-carboxymethoxyphenyl)-2-(4-sulfophenyl)-2H-tetrazolium, inner salt] Cell Proliferation Assay (Promega, Madison, Wis.) or sulforhodamine B (SRB) assay at the end of the exposure period (47, 48).
Chemotype moiety compounds of CC-I were also tested on the Temodar-resistant CCF-STTG1 and Temodar®-sensitive U87-MG cell lines. The glioma cell culture and treatment is as described above.
The human glioma CCF-STTG1 cell lines were plated at a density of 5,000 cells per well in 96 well plates under standard DMEM cell culture conditions and then exposed to different concentrations of CC-I, merbarone, or ICRF-193 for 5 days. Merbarone and ICRF-193 are both topoisomerase II inhibitors (55, 56).

The test system of another data set is BREC. As to the kind of experiment: Cytotoxicity, bovine retinal endothelial cells. It is filed as cell-based. The protocol: Bovine retinal endothelial cells (BRECs) were isolated and processed according to a previously published procedure (49, 50). In brief, BREC was grown in MCDB-131 media (Sigma, St) supplemented with 10% FBS, 10 ng/mL EGF, 0.2 mg/mL ENDO GRO (VEC Technologies, Inc.), 0.09 mg/ml heparin, and antibiotic/antimycotic (Invitrogen).

The subject of the next data set is C282Y/SH-SY5Y. As to the kind of experiment: cells. Type of data set: cell-based. Conditions: C282Y HFE transfected human neuroblastoma SH-SY5Y.
The subject of data set [1] is U87-MG or CCF-STTG1 glioma cells. Briefly: Intracranial orthotopic xenograft brain tumor model. The conditions noted are these: 25 mg/kg i.p. once a week for 7 weeks. Here is the method: The effect of CC-I in an intracranial, orthotopic xenograft brain tumor model was analysed. The caudate putamen region of female, athymic nude mice was injected with 10^6 human U87-MG (Temodar®-sensitive) or CCF-STTG1 (Temodar®-resistant) glioma cells in a volume of 10 μl. At one week post-injection, tumor volume was measured using Ti weighted MRI contrast (7T MR imaging system). Thereafter, CC-I was injected intraperitoneally, once a week for 7 weeks at a concentration of 25 mg/kg body weight. Tumor size was measured weekly. […] Liver and kidney toxicity (total bilirubin, blood urea nitrogen (BUN), creatine, aspartate aminotransferase (SGOT/AST), alanine aminotransferase (SGPT/ALT), and alkaline phosphatase) were also determined using an automated chemistry analyzer machine (Roche Cobase MIRA) and kits manufactured by Thermo Electron.

The subject of data set [2] is Human Astrocyte (Normal cells). As to the kind of experiment: Cytotoxicity, normal human astrocytes. It is filed as cell-based. The protocol: The human astrocyte cells were cultured from brains of deceased amyotrophic lateral sclerosis (ALS) patients (Uniform Anatomic Gift Act of 1987). The cerebrum was isolated from the other brain regions and meninges and placed in calcium and magnesium-free Hank's buffered salt solution (CMF-HBSS). The cerebrum was diced, incubated with trypsin/EDTA (Gibco BRL, Grand Island, N.Y.) and triturated with DNase. Tissue was passed through a 135 μm Nitex screen (SEFAR America, Depew, N.Y.), washed twice with CMF-HBSS, re-suspended in media (DMEM/10% FBS, 7.5 mM glucose, 4 mM L-glutamine, 1,000 U/mL penicillin, […], 2.5 μg/mL amphotericin B), centrifuged and passed through two sets of 35 μm Nitex screens. Dissociated cells was plated in poly-D-lysine pre-coated 175 cm^2 flasks. The mixed glial cultures were grown for 14 days, and then shaken to dislodge microglia cells and oligodendrocytes that were discarded. The pure astrocytes were attached to the bottom of the flask.

Another data set has as its system SW1088. Briefly: Cytotoxicity (MTS or SRB assay), SW1088. It is filed as cell-based, human.

Description for C282Y/SH-SY5Y: Human neuroblastoma cell lines were cultured in Dulbecco's Modified Eagle Medium (DMEM)/F12 media. Human glioma cells were ordered from American Type Culture Collection (ATCC, Manassas, Va.), and maintained in DMEM with 4×10^−3M L-glutamine, 100 U/ml penicillin, 100 μg/ml streptomycin, and 10% fetal bovine serum (FBS). All experiments were performed at 37° C. in 5% CO2 atmosphere under cell culture conditions. Prior to γ-radiation or exposure to chemotherapeutic agents, the glioma cells were plated at a density of 156 to 8,000 cells per well in 96 well plates to account for differences in growth rates, and to obtain similar cell densities for the experimental manipulations, and cultured overnight. […] Cell cytotoxicity assay was determined by MTS [3-(4,5-dimethylthiazol-2-yl)-5-(3-carboxymethoxyphenyl)-2-(4-sulfophenyl)-2H-tetrazolium, inner salt] Cell Proliferation Assay (Promega, Madison, Wis.) or sulforhodamine B (SRB) assay at the end of the exposure period (47, 48).
Description for SW1088: Human glioma cells were ordered from American Type Culture Collection (ATCC, Manassas, Va.), and maintained in DMEM with 4×10^−3M L-glutamine, 100 U/ml penicillin, 100 μg/ml streptomycin, and 10% fetal bovine serum (FBS). All experiments were performed at 37° C. in 5% CO2 atmosphere under cell culture conditions. […] Then cells received different dosages of γ-radiation from a ^60Co source GammaCell 220 (Nordion International Inc, Ontario, Canada) or chemotherapeutic agents for another 2-6 days. Cell cytotoxicity assay was determined by MTS [3-(4,5-dimethylthiazol-2-yl)-5-(3-carboxymethoxyphenyl)-2-(4-sulfophenyl)-2H-tetrazolium, inner salt] Cell Proliferation Assay (Promega, Madison, Wis.) or sulforhodamine B (SRB) assay at the end of the exposure period (47, 48).

Usually IC50 stands for the point on the concentration scale where inhibition reaches its midpoint. With `CCN1C(=O)C(=C/C=C/c2ccco2)C(=O)NC1=S` [CC-I], in the data set on U87-MG (U87-MG, 5 days), the “cytotoxicity compared with merbarone or ICRF-193” value is on record as “more cytotoxic”. In addition, the IC50 was 3.9 µM in the data set with U87-MG (read-out: IC50 (μM) U87-MG, human astrocytoma or glioblastoma cell line); 46.9 µM in the data set on BREC (bovine retinal endothelial cell); 1.8 µM in the data set on C282Y/SH-SY5Y; 16.4 µM in data set [2] (normal cells); 1.7 µM with SW1088 (human astrocytoma or glioblastoma cell line, read-out: IC50 (μM) SW1088). In addition, the “toxicity to bovine retinal endothelial cells (BREC)” value with BREC (model for the blood-brain-barrier) is reported as “not toxic”. Further, the “body weight of mice” value in data set [1] is on record as “not affected”. In addition, the “liver and kidney toxicity (blood chemistry)” value in data set [1] is “no liver or kidney toxicity”. Further, the “survival of tumor-bearing mice” value in data set [1] is recorded as “extended survival”. Further, the intracranial tumor growth result in data set [1] (Temodar-resistant and -sensitive tumors) is reported as “inhibited tumor growth”. Moreover, in data set [2] (at concentrations toxic to Temodar-resistant glioma cells), the “toxicity to normal human astrocytes” value is reported as “not toxic”. Besides, in the data set on SW1088 (SW-1088 astrocytoma cells), the LD50 result was “≈ 0.5 μg/ml and ~1.7 μM”.
